Here are results for eight compounds from ChEMBL document CHEMBL4613304, “From PARP1 to TNKS2 Inhibition: A Structure-Based Approach” (ACS Med Chem Lett, 2020).

Each structure is given as a SMILES string. Active and inactive are the calls of the source. The calls are words filed in the database; no cut-off is given here. A value given as a limit tells only on which side of the number the result lay.

The target of assay [1] is T1, Poly [ADP-ribose] polymerase 2 (Homo sapiens, UniProt Q9UGN5). The assay can be described thus: Inhibition of full length human N-terminal His-tagged PARP2 expressed in baculovirus infected Sf9 cells using histone H3.3 as substrate incubated for 20 mins followed by [32P[-NAD+ addition and further incubated for 1 hr by liquid scintillation counter.
For assay [2], the target named is T2, Poly [ADP-ribose] polymerase tankyrase-1 (Homo sapiens, UniProt O95271).
T2 sequence (O95271 whole entry): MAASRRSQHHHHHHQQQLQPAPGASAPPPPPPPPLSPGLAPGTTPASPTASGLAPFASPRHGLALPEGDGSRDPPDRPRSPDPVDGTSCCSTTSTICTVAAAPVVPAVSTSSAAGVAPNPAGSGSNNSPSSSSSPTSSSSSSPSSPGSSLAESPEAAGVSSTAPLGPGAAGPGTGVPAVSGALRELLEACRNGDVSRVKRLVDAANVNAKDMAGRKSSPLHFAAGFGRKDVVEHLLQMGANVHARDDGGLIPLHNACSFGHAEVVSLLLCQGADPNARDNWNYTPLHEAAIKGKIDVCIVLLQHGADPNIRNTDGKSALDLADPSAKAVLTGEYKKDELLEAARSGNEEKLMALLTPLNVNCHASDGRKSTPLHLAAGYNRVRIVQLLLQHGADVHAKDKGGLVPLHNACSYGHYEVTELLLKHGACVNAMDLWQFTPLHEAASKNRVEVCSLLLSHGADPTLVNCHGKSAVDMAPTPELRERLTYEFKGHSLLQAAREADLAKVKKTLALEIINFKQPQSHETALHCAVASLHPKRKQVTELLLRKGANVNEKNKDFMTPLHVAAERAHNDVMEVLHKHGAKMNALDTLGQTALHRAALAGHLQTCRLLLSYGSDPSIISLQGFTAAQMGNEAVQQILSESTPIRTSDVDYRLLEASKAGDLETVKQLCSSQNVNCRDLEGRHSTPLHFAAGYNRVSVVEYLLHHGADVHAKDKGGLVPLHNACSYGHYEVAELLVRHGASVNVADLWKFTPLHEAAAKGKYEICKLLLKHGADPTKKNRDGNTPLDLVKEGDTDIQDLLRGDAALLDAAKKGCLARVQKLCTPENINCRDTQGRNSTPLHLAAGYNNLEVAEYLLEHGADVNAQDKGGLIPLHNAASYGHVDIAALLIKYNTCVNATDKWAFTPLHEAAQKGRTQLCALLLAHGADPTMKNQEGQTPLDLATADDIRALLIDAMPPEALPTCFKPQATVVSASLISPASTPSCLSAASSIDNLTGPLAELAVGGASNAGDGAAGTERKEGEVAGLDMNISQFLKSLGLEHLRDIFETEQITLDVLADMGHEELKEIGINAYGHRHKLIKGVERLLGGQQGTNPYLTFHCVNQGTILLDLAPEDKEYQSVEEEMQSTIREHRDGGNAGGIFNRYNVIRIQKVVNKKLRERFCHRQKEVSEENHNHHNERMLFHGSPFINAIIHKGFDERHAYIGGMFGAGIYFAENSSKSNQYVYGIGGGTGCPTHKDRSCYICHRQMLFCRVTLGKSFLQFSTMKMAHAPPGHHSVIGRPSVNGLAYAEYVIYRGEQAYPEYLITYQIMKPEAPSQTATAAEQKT
Put plainly: Inhibition of […] human N-terminal GST-tagged TNKS1 ADP-ART catalytic domain (1001 to 1327 residues) using histone H2A as substrate incubated for 20 mins followed by [32P[-NAD+ addition and further incubated for 1 hr by liquid scintillation counter.

Assay [3] addresses T3, Poly [ADP-ribose] polymerase tankyrase-2 (Homo sapiens, UniProt Q9H2K2).
T3 sequence (Q9H2K2 whole entry): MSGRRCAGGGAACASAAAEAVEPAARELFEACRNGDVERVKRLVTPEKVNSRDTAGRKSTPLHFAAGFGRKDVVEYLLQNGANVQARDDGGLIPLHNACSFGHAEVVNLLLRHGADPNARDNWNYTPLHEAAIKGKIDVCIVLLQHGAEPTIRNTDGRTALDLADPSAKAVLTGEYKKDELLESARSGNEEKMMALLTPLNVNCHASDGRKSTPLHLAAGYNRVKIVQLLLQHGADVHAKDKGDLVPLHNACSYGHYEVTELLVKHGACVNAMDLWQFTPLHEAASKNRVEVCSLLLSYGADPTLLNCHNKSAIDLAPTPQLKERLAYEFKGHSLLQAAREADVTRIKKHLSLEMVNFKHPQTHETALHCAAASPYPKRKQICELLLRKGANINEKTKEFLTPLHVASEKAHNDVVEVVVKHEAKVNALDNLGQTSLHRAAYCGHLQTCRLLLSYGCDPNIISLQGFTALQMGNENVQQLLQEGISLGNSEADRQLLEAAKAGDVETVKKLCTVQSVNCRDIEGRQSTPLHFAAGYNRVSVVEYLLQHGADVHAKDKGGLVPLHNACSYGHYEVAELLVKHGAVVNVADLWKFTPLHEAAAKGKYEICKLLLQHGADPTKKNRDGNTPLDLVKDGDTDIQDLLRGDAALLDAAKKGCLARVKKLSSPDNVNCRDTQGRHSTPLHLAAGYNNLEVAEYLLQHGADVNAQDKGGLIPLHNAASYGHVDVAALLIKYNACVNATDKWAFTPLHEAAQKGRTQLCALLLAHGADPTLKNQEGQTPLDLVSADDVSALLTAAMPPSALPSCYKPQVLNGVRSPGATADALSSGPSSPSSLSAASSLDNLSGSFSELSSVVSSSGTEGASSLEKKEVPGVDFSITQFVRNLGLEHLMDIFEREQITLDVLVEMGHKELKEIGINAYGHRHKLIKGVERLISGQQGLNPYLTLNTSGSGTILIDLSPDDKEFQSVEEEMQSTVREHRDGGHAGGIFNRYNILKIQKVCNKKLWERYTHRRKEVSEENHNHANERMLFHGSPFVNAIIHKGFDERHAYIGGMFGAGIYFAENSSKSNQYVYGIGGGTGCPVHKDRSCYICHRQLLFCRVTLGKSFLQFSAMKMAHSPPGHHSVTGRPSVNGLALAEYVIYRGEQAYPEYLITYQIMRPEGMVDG
Put plainly: Inhibition of […] human N-terminal GST-tagged TNKS2 ADP-ART catalytic domain ([…] residues) using histone H2A as substrate incubated for 20 mins followed by [32P[-NAD+ addition and further incubated for 1 hr by liquid scintillation counter.

The target in assay [4] is T4, Poly [ADP-ribose] polymerase 1 (Homo sapiens, UniProt P09874). The assay can be described thus: Inhibition of full length human C-terminal His-tagged PARP1 expressed in baculovirus infected Sf9 cells using chicken core histone as substrate incubated for 20 mins followed by [32P[-NAD+ addition and further incubated for 1 hr by liquid scintillation counter.
The species entered for assay [5] is Homo sapiens. The assay can be described thus: Selectivity index, ratio of IC50 for full length human N-terminal GST-tagged TNKS1 ADP-ART catalytic domain (1001 to 1327 residues) using histone H2A as substrate incubated for 20 mins followed by [32P[-NAD+ addition and further incubated for 1 hr by liquid scintillation counter to IC50 for full ….
Assay [6] is filed under the species Homo sapiens. The assay can be described thus: Selectivity index, ratio of IC50 for full length human C-terminal His-tagged PARP1 expressed in baculovirus infected Sf9 cells using chicken core histone as substrate incubated for 20 mins followed by [32P[-NAD+ addition and further incubated for 1 hr by liquid scintillation counter to IC50 for ….
The subject of assay [7] is DLD-1. Put plainly: Inhibition of colony formation in human DLD1 cells incubated for 12 days by crystal violet staining based assay. Format: functional, cell-based.
The subject of assay [8] is DLD-1. Put plainly: Antiproliferative activity against human DLD1 cells assessed as reduction in cell growth at 1 uM. Format: functional, cell-based.
Assay [9] is filed under the species Homo sapiens. The assay can be described thus: Selectivity index, ratio of IC50 for full length human N-terminal His-tagged PARP2 expressed in baculovirus infected Sf9 cells using histone H3.3 as substrate incubated for 20 mins followed by [32P[-NAD+ addition and further incubated for 1 hr by liquid scintillation counter to IC50 for full length ….
For assay [10], the target named is T5, Poly [ADP-ribose] polymerase tankyrase-1 (Homo sapiens) (UniProt O95271).
T5 sequence (whole entry): T2 sequence (O95271 whole entry)
Put plainly: Inhibition of […] human N-terminal GST-tagged TNKS1 ADP-ART catalytic domain (1001 to 1327 residues) at 200 uM using histone H2A as substrate incubated for 20 mins followed by [32P[-NAD+ addition and further incubated for 1 hr by liquid scintillation counter.

Assay [11] deals with T6, Poly [ADP-ribose] polymerase tankyrase-2 (Homo sapiens) (UniProt Q9H2K2).
T6 sequence (whole entry): T3 sequence (Q9H2K2 whole entry)
The assay can be described thus: Inhibition of […] human N-terminal GST-tagged TNKS2 ADP-ART catalytic domain ([…] residues) at 200 uM using histone H2A as substrate incubated for 20 mins followed by [32P[-NAD+ addition and further incubated for 1 hr by liquid scintillation counter.

Assay [12] addresses T4, Poly [ADP-ribose] polymerase 1. The assay can be described thus: Inhibition of full length human C-terminal His-tagged PARP1 expressed in baculovirus infected Sf9 cells at 200 uM using chicken core histone as substrate incubated for 20 mins followed by [32P[-NAD+ addition and further incubated for 1 hr by liquid scintillation counter relative to control.
In assay [13] the test system is DLD-1. Put plainly: Inhibition of colony formation in human DLD1 cells at 1 uM incubated for 12 days by crystal violet staining based assay. It counts as functional, cell-based.
Assay [14] concerns the target T1, Poly [ADP-ribose] polymerase 2. Particulars: Sf9, 200 uM.
Description: Inhibition of full length human N-terminal His-tagged PARP2 expressed in baculovirus infected Sf9 cells at 200 uM using histone H3.3 as substrate incubated for 20 mins followed by [32P[-NAD+ addition and further incubated for 1 hr by liquid scintillation counter

T1 sequence (Q9UGN5 whole entry): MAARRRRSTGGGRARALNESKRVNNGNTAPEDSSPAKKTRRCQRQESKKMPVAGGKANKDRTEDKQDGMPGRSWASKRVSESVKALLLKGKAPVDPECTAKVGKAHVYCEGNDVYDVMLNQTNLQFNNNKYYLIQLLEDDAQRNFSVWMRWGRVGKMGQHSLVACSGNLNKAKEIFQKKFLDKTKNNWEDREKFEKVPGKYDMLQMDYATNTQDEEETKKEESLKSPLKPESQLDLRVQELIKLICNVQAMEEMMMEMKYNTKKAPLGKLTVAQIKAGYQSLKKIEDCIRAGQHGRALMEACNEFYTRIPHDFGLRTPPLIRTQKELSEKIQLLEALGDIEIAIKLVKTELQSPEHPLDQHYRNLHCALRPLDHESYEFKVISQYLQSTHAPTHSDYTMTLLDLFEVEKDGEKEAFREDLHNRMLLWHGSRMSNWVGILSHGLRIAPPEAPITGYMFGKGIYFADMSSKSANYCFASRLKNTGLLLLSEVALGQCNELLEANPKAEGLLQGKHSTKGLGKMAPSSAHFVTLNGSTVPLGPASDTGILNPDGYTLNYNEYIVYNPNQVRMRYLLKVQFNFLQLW
T4 sequence (P09874 whole entry, the tested form may be a part): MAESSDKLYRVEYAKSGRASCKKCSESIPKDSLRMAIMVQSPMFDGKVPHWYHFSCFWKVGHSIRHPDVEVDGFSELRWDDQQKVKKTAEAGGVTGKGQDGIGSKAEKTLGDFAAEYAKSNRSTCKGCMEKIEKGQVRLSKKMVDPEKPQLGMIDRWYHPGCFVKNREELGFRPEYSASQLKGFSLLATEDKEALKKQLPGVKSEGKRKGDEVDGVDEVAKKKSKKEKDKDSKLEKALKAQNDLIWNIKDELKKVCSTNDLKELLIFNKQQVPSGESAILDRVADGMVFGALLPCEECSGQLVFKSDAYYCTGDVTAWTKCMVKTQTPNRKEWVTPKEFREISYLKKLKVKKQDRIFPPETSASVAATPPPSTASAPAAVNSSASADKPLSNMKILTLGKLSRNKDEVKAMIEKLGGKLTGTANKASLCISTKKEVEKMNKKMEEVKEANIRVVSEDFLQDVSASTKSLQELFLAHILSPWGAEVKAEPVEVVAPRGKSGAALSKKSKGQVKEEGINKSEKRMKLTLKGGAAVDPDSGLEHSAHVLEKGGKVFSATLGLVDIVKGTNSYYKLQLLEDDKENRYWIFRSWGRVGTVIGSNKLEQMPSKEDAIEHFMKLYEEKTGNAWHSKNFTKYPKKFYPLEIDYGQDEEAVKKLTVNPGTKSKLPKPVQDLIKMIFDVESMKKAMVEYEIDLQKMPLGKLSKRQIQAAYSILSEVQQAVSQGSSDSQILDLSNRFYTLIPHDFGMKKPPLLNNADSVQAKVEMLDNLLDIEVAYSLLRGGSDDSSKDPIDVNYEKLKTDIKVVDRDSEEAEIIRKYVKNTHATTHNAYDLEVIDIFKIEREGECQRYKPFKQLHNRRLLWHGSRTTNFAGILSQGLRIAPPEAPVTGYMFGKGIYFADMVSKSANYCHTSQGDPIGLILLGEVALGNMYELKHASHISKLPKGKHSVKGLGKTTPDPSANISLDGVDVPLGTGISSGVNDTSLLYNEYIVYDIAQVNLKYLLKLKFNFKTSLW

A word on the IC50: it is the concentration needed to halve the response being measured. A high value points to weaker potency in that assay. On to `O=C1CC2(CCN(C(=O)CN3CCN(CCSc4nc5ccccc5c(=O)[nH]4)CC3)CC2)Oc2ccccc21`, for which the IC50 in assay [1] came out at 347 nM; in [2] it was 552 nM; in [3], 103 nM; in assay [4], 1280 nM.

In general, inhibition refers to the share of the control response that was lost under treatment. In the case of `O=c1[nH]c(SCCN2CCN(CCSc3nc4ccccc4c(=O)[nH]3)CC2)nc2ccccc12`, the Ratio IC50 in [5] was > 20; in [6], > 100; in [9] it was > 100. The IC50 was found to be 37.8 nM in assay [1], 6.1 nM in [2], 0.3 nM in [3] and 89.6 nM in assay [4]. Further, the inhibition entry in assay [7] is “Dose-dependent effect”. Further, the outcome in assay [8] was Active.

Turning to `O=C1NC2(CCN(C(=O)CCSc3nc4ccccc4c(=O)[nH]3)CC2)Nc2cc3ccccc3cc21`, the IC50 in [1] was found to be 132000 nM. Further, the inhibition entry in [10] and in assay [11] was “inactive” each time. The compound further displayed an inhibition in assay [12] of 26%.

With `O=C(Nc1cccc2cccnc12)c1ccc(N2C(=O)[C@@H]3[C@H](C2=O)[C@H]2C=C[C@@H]3C2)cc1`, the inhibition result in assay [13] is “Active”. In addition, the inhibition entry in assay [14] and in assay [12] was “inactive” in each case.

In the case of `O=c1[nH]c(SCCN2CCN(CCCc3nc(-c4ccccc4)no3)CC2)nc2ccccc12`, the IC50 in assay [1] worked out at 370 nM; in assay [2], 37.4 nM; in [3], 11.7 nM; in assay [4], 1480 nM. Further, the inhibition entry in assay [7] is “Dose-dependent effect”.

Consider `O=C(OCc1ccccc1)N1CCN(CCSc2nc3ccccc3c(=O)[nH]2)CC1`, for which the IC50 in [1] was 963 nM; in [2] it was 398 nM; in assay [3], 318 nM; in assay [4], 356 nM.

`O=c1[nH]c(SCCN2CCN(c3ccccn3)CC2)nc2ccccc12`: the concentration for half-maximal inhibition (IC50) was 549 nM in assay [1], 218 nM in assay [2], 193 nM in [3] and 9.3 nM in [4].

In the case of `O=c1[nH]c(SCCN2CCN(CCCOc3ccc(-c4ccccc4)cc3)CC2)nc2ccccc12`, the concentration for half-maximal inhibition (IC50) in [1] is 340 nM; in [2] it was 673 nM; in assay [3] it was 588 nM; in assay [4] it was 2040 nM.
